Laboratory results taken from US10016373B2, “CB2 receptor ligands for the treatment of psychiatric disorders” (priority 2013, dated 2018).
Like-named read-outs stand apart in the source and are kept apart here.

Columns and labels:
mice [1] = format: in vivo
Protocol: For the treated mice, one of the two CB2 receptor-selective agonist solutions: either CB2 agonist2 solution or H-308 solution, was administered by intravenous administration to mice pups to induce ADHD-like behavior and/or obsessive-compulsive-like behavior as a murine model for ADHD and OCD. […] In order to test the effect of non-agonist or mixed-type agonist/inverse agonist CB2 receptor ligands on hyperactivity, the effects of M1 were studied.
Open-Field Test (Crossing and Rearing, Defecation, Grooming)
Mice were assessed for hyperactive behavior on postnatal days 16-20, 26-39, at age 13 weeks and at age 23 weeks. Mice were placed in the center of a transparent glass cage 30×40×31 cm divided into squares of 7.5×7.5 cm. The number of squares crossed and the rearing activity were evaluated for 8 min.

mice [2] = experiment: Prepulse inhibition (PPI) of the startle reflex; format: in vivo
Protocol: Attention Test: Prepulse Inhibition (PPI) of the Startle Reflex
A weak audible stimulus (74-90 dB tone) “prepulse” was used to inhibit the acoustic startle response to a subsequent strong audible stimulus (120 dB tone) “pulse”. Reduced prepulse inhibition of the startle reflex (PPI) was taken as an index of the positive symptoms of deficits in attention.
PPI was assessed similarly to the method described by Varty et al. (2001). Mice were placed in a startle chamber and allowed to acclimatize for 5 minutes A loudspeaker produced startling “pulse” at 120 dB and thereafter 65 dB background white noise or one of […] 20 ms duration “prepulses” at 74, 78, 82, 86, and 90 dB followed after 20 ms by a 40 ms startling “pulse” at 120 dB. The response of each mouse was recorded and stored by a computer. Each test session lasted for 11 minutes and consisted of 5 presentations of each of the prepulse/pulse sound stimuli (total of 30 or 35) presented in random order and separated by 15 second intervals. The magnitude of prepulse inhibition was calculated as percentage PPI=[1-(acoustic startle for prepulse+pulse)/(acoustic startle for pulse alone)]×100.

mice [3] = experiment: Impulsivity, Elevated Plus Maze; format: in vivo; details: CB2 agonist2 model mice at 13 weeks, M1 5 mg/kg i.p. 24 hours before the test
Protocol: The treatment consisted of a single intravenous administration of the vehicle or the M1 solution Impulsivity was tested 24 hours after treatment.
Impulsivity as measured by the paucity of time spent on the two anxiety-provoking, open arms (as opposed to the two enclosed arms) of an “Elevated Plus Maze” was used as a parameter of negative symptoms of schizophrenia (Josselyn and Vaccarino, 1998). The plus maze was elevated 50 cm above the table top. Behavior of each mouse was recorded for 5 minutes by a video camera and scored using the “EthoVision” software (Noldus), measuring the number of entries as well as the amount of time spent in each arm, open or closed. Reduced time spent in the closed arms indicated reduced anxiety. Increased time spent in the opened arms indicated increased risk behavior (hyperactive and impulsive).
The treatment consisted of a single i.p. administration of the vehicle or the M1 solution. The duration ratio open arm/close arm and the frequency ratio open arm/close arm in the Elevated Plus Maze were evaluated 24 hours after treatment with either vehicle or M1.

mice [4] = experiment: Vocal tics, ultrasonic voice recording; format: in vivo
Protocol: Mice were recorded at the age of 13 or 23-25 weeks with an ultrasonic voice recorder (Noldus). Mice were recorded at the age of 29 days with an ultrasonic voice recorder (AviSoft). Single mice were recorded in a cage for 10 min (according to sex and type of treatment). The number and duration of events at 20-40 kHz and at 50-70 kHz were analyzed. In some experiments, 24 h following M1 treatment, each mouse was recorded for 10 min before and after stress. Stress was induced by incubation for 10-15 min in a mouse restrainer.

Body weight = format: in vivo; details: postnatal day 100; mice treated with 0.5 mg/kg CB2 agonist2; FIG. 16C
CB2 receptor [5] = target: T1, CB2 receptor (Homo sapiens, UniProt P34972); details: cited from earlier work
T1 construct: expressed in transfected cells; host or cells: CHO cells
T1 sequence (P34972 whole entry): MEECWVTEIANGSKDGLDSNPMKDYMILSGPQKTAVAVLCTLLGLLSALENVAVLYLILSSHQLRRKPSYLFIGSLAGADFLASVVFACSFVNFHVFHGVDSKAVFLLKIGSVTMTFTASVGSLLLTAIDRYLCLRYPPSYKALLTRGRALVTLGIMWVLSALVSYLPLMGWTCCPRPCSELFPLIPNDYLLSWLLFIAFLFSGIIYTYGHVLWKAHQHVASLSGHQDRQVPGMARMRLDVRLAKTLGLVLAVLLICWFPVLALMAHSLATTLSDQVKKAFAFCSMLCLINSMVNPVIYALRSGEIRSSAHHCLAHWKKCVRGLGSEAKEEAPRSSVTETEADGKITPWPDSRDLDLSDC

CB2 receptor [6] = target: T1, CB2 receptor; details: cited from earlier work; remark: listed apart in the source
osteoclastogenesis = details: Schuehly et al. 2011; cited from earlier work
presenilin 2 mutant mice = details: cited from earlier work
[7] = system: mouse model of Alzheimer's disease; details: orally administered, Lee et al. 2012; cited from earlier work
[8] = CB2 receptor, Schuehly et al. 2011

## C=CCc1ccc(O)c(-c2ccc(OC)c(CC=C)c2)c1 [M1, 2-(4-Methoxy-3-prop-2-enylphenyl)-4-prop-2-enylphenol]
Mice [1]; CB2 agonist2 0.5 mg/kg at the age of 3-15 days, M1 5 mg/kg on day 29, measured on day 39, stressed female mice, FIG. 13A
  grooming: reversed
Mice [1]; CB2 agonist2 0.5 mg/kg at the age of 3-15 days, M1 5 mg/kg on day 29, measured on day 39, stressed female mice, FIG. 13B
  feces secretion: reversed
Mice [1]; CB2 agonist2 0.5 mg/kg at the age of 3-15 days, M1 on day 29, measured on day 36, unstressed female mice, FIG. 12A
  rearing: reversed
Mice [1]; CB2 agonist2 0.5 mg/kg at the age of 3-15 days, M1 on day 29, measured on day 39, stressed female mice, FIG. 12B
  ambulation: reversed
Mice [1]; CB2 agonist2 0.5 mg/kg model, M1 injected on day 29, measured the same day, stressed females, FIG. 11B
  ambulation: reversed
Mice [1]; CB2 agonist2 0.5 mg/kg model, M1 injected on day 29, measured the same day, stressed females, FIG. 11D
  rearing: reversed
Mice [1]; age of 3 months, 0.1 mg/kg HU-308, M1 5 mg/kg in gavage 30 minutes before the experiment, FIGS. 17A-B
  hyperactivity: reversed
Mice [1]; inferred from efficacy of M1 5 mg/kg given in gavage
  oral availability: orally available
Mice [1]; model mice 5 mg/kg CB2 agonist2 postnatal days 1-5, M1 5 mg/kg single i.p. at 13 weeks, 30 minutes after treatment, FIG. 5A
  ambulation: reversed
Mice [1]; model mice 5 mg/kg CB2 agonist2 postnatal days 1-5, M1 5 mg/kg single i.p. at 13 weeks, 30 minutes after treatment, FIG. 5B
  rearing: reversed
Mice [1]; model mice 5 mg/kg CB2 agonist2 postnatal days 5-13, M1 5 mg/kg single i.p. at 23 weeks, FIG. 4C
  secretion of feces: reversed
Mice [1]; model mice 5 mg/kg CB2 agonist2 postnatal days 5-13, M1 5 mg/kg single i.p. at 23 weeks, tested 48 hours after treatment, FIG. 4A
  grooming duration: reversed
Mice [1]; model mice 5 mg/kg CB2 agonist2 postnatal days 5-13, M1 5 mg/kg single i.p. at 23 weeks, tested 48 hours after treatment, FIG. 4B
  grooming frequency: reversed
Mice [2]; mice treated with 0.5 mg/kg CB2 agonist2, FIG. 15B
  response to pre-pulse tone: reversed
Mice [2]; postnatal day 100, 0.5 mg/kg CB2 agonist2 mice, at the beginning of the experiment, FIG. 16A
  response to the startle tone of 120 dB: no effect
Mice [2]; postnatal day 100, 0.5 mg/kg CB2 agonist2 mice, re-evaluated at the end of the experiment, FIG. 16B
  response to 120 dB: reversed
Mice [2]; postnatal day 100, mice treated with 0.5 mg/kg CB2 agonist2, FIG. 15A
  % PPI (pre-pulse inhibition): reversed
Mice [3]
  impulsive/hyperactive behavior: reversed
Mice [4]; 20-40 KHz, day 29, female mice, CB2 agonist2 0.5 mg/kg at the age of 3-15 days, M1 5 mg/kg on day 29, FIG. 14A
  number of vocal events: reversed
Mice [4]; 20-40 KHz, day 29, female mice, CB2 agonist2 0.5 mg/kg at the age of 3-15 days, M1 5 mg/kg on day 29, FIG. 14B
  duration of vocals: reversed
Mice [4]; female mice 23-25 weeks, 20-40 KHz, stress, CB2 agonist2 5 mg/kg postnatal days 5-13, M1 given to model mice, FIG. 7A
  number of vocal events: reversed
Mice [4]; female mice 23-25 weeks, 20-40 KHz, stress, CB2 agonist2 5 mg/kg postnatal days 5-13, M1 given to model mice, FIG. 7B
  total duration of vocal events: reversed
Mice [4]; female mice 23-25 weeks, 20-40 KHz, stress, CB2 agonist2 5 mg/kg postnatal days 5-13, M1 given to model mice, FIG. 7C
  mean duration of vocal events: reversed
Mice [4]; female mice 23-25 weeks, 50-70 KHz, stress, CB2 agonist2 5 mg/kg postnatal days 5-13, M1 given to model mice, FIG. 8A
  number of vocal events: reversed
Mice [4]; female mice 23-25 weeks, 50-70 KHz, stress, CB2 agonist2 5 mg/kg postnatal days 5-13, M1 given to model mice, FIG. 8B
  total duration of vocal events: reversed
Mice [4]; female mice 23-25 weeks, 50-70 KHz, stress, CB2 agonist2 5 mg/kg postnatal days 5-13, M1 given to model mice, FIG. 8C
  mean duration of vocal events: reversed
Mice [4]; male mice 23-25 weeks, 20-40 KHz, before stress, CB2 agonist2 5 mg/kg postnatal days 5-13, M1 given to model mice, FIG. 9A
  total duration of vocal events: reversed
Mice [4]; male mice 23-25 weeks, 20-40 KHz, before stress, CB2 agonist2 5 mg/kg postnatal days 5-13, M1 given to model mice, FIG. 9B
  mean duration of vocal events: reversed
Mice [4]; male mice 23-25 weeks, 50-70 KHz, before stress, CB2 agonist2 5 mg/kg postnatal days 5-13, M1 given to model mice, FIG. 10A
  total duration of vocal events: reversed
Mice [4]; male mice 23-25 weeks, 50-70 KHz, before stress, CB2 agonist2 5 mg/kg postnatal days 5-13, M1 given to model mice, FIG. 10B
  mean duration of vocal events: reversed
Body weight
  body weight: no effect
CB2 receptor [5]; [8]
  activity via cAMP pathway: inverse agonism
CB2 receptor [5]; known dual effects of M1
  cAMP production: increasing
CB2 receptor [6]; [8]
  activity via Ca2+ pathway: partial agonism
CB2 receptor [6]; known dual effects of M1
  intracellular Ca2+ concentration: increasing
osteoclastogenesis
  osteoclastogenesis: potently inhibits
Presenilin 2 mutant mice
  memory impairment: attenuates
[7]
  amyloidogenesis and progression of AD: prevent
